In patent publication US8609399B2, “Reducing insoluble deposit formation in ethanol production” (Global Process Technologies, Inc., priority 2007, dated 2013):

Test: Solubility in Presence of Ethanol (temperature at which a precipitate became visible)
Assay type: physicochemical
Details: 800 ppm Mg2+ and 3600 ppm phytic acid
Text: In the table, the water and ethanol columns indicate the temperature at which a precipitate became visible in a solution containing 800 ppm Mg^2+ and 3600 ppm phytic acid.

Substance: magnesium phytate
- Temperature (° C.; in 13% ethanol/87% water solution) at which a precipitate became visible (pH 4.35): 40 °C
- Temperature (° C.; in 100% water solution) at which a precipitate became visible (pH 4.52): 80 °C
- Temperature (° C.; in 13% ethanol/87% water solution) at which a precipitate became visible (pH 4.53): 30 °C
- Temperature (° C.; in 13% ethanol/87% water solution) at which a precipitate became visible (pH 4.6): 21 °C
- Temperature (° C.; in 100% water solution) at which a precipitate became visible (pH 4.97): 60 °C
- Temperature (° C.; in 100% water solution) at which a precipitate became visible (pH 5.36): 40 °C
- Temperature (° C.; in 100% water solution) at which a precipitate became visible (pH 5.6): 21 °C
